Results: patent US10106556B2, “Heterocyclic compound” (TAKEDA PHARMACEUTICAL COMPANY LIMITED, priority 2015, dated 2018)

These compounds were tested against T1, His-hMAGL (recombinant polyhistidine tagged human MAGL protein) (Homo sapiens, UniProt Q99685) (assay: Measurement of MAGL inhibitory activity (arachidonic acid production from 2-arachidonylglycerol, RapidFire-mass spectrometry)). Settings: MAGL inhibitory rate at 10 μM test compound; 60 min preincubation with His-hMAGL, 2-arachidonylglycerol substrate, 10 min reaction at room temperature.
T1 construct: made in house; host or cells: E. coli BL21(DE3)
T1 sequence (Q99685 1-303): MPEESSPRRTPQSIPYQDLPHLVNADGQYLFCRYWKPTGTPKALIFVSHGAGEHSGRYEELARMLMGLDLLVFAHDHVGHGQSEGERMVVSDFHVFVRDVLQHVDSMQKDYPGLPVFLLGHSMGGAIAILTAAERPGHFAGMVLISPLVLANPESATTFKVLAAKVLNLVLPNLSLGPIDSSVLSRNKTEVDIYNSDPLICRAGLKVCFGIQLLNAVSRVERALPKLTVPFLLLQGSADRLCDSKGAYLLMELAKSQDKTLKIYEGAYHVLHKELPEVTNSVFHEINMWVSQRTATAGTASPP
Format: biochemical
How it was run: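 Recombinant His-tagged human MAGL converted 2-arachidonylglycerol to arachidonic acid. Reactions received acetonitrile with 3 μM arachidonic acid-d8 as internal standard, and product was quantified by RapidFire SPE (C4) with negative-mode SRM mass spectrometry. Percent inhibition was calculated against compound-free and enzyme-free controls.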

inhibition at 10 µM [%] | SMILES
98 | O=C1COc2cc(F)c(C(=O)N3CC(COc4ccc5cccnc5c4)C3)cc2N1 [Example 171, 7-fluoro-6-((3-((quinolin-7-yloxy)methyl)azetidin-1-yl)carbonyl)-2H-1,4-benzoxazin-3(4H)-one]
100 | O=C1COc2cc(F)c(C(=O)N3CC(COc4ccc5ccncc5c4)C3)cc2N1 [Example 172, 7-fluoro-6-((3-((isoquinolin-7-yloxy)methyl)azetidin-1-yl)carbonyl)-2H-1,4-benzoxazin-3(4H)-one]
98 | O=C1COc2cc(F)c(C(=O)N3CC(COc4ccc5cnccc5c4)C3)cc2N1 [Example 173, 7-fluoro-6-((3-((isoquinolin-6-yloxy)methyl)azetidin-1-yl)carbonyl)-2H-1,4-benzoxazin-3(4H)-one]
102 | COc1ccccc1-c1ccccc1OCC1CN(C(=O)c2cc3c(cc2F)OCC(=O)N3)C1 [Example 174, 7-fluoro-6-((3-(((2′-methoxybiphenyl-2-yl)oxy)methyl)azetidin-1-yl)carbonyl)-2H-1,4-benzoxazin-3(4H)-one]
97 | O=C1COc2cc(F)c(C(=O)N3CC(COc4ccc(Cl)cc4-c4nnco4)C3)cc2N1 [Example 175, 6-((3-((4-chloro-2-(1,3,4-oxadiazol-2-yl)phenoxy)methyl)azetidin-1-yl)carbonyl)-7-fluoro-2H-1,4-benzoxazin-3(4H)-one]
95 | CCc1ccc(-c2ccnc(C)c2OCC2CN(C(=O)c3cc4c(cc3F)OCC(=O)N4)C2)nc1 [Example 176, 6-((3-(((5-ethyl-2′-methyl-2,4′-bipyridin-3′-yl)oxy)methyl)azetidin-1-yl)carbonyl)-7-fluoro-2H-1,4-benzoxazin-3(4H)-one]
91 | Cc1nccc(-c2ccccn2)c1OCC1CN(C(=O)c2cc3c(cc2F)OCC(=O)N3)C1 [Example 177, 7-fluoro-6-((3-(((2′-methyl-2,4′-bipyridin-3′-yl)oxy)methyl)azetidin-1-yl)carbonyl)-2H-1,4-benzoxazin-3(4H)-one]
94 | Cc1cc(OCC2CN(C(=O)c3cc4c(cc3F)OCC(=O)N4)C2)n(-c2ccccn2)n1 [Example 178, 7-fluoro-6-((3-(((3-methyl-1-(pyridin-2-yl)-1H-pyrazol-5-yl)oxy)methyl)azetidin-1-yl)carbonyl)-2H-1,4-benzoxazin-3(4H)-one]
96 | O=C1COc2cc(F)c(C(=O)N3CC(COc4noc5ccc(Cl)cc45)C3)cc2N1 [Example 180, 6-((3-(((5-chloro-1,2-benzoxazol-3-yl)oxy)methyl)azetidin-1-yl)carbonyl)-7-fluoro-2H-1,4-benzoxazin-3(4H)-one]
99 | O=C1COc2cc(F)c(C(=O)N3CC(COc4ccc5nccn5c4-c4ccc(F)cc4)C3)cc2N1 [Example 181, 7-fluoro-6-((3-(((5-(4-fluorophenyl)imidazo[1,2-a]pyridin-6-yl)oxy)methyl)azetidin-1-yl)carbonyl)-2H-1,4-benzoxazin-3(4H)-one]
98 | O=C1COc2cc(F)c(C(=O)N3CC(COc4ccc(Br)cc4)C3)cc2N1 [Example 182, 6-((3-((4-bromophenoxy)methyl)azetidin-1-yl)carbonyl)-7-fluoro-2H-1,4-benzoxazin-3(4H)-one]
99 | Cc1ccc(OCC2CN(C(=O)c3cc4c(cc3F)OCC(=O)N4)C2)cc1Cl [Example 183, 6-((3-((3-chloro-4-methylphenoxy)methyl)azetidin-1-yl)carbonyl)-7-fluoro-2H-1,4-benzoxazin-3(4H)-one]
100 | Cc1cc(OCC2CN(C(=O)c3cc4c(cc3F)OCC(=O)N4)C2)ccc1Cl [Example 184, 6-((3-((4-chloro-3-methylphenoxy)methyl)azetidin-1-yl)carbonyl)-7-fluoro-2H-1,4-benzoxazin-3(4H)-one]
100 | O=C1COc2cc(F)c(C(=O)N3CC(COc4ccc(Cl)cc4Br)C3)cc2N1 [Example 185, 6-((3-((2-bromo-4-chlorophenoxy)methyl)azetidin-1-yl)carbonyl)-7-fluoro-2H-1,4-benzoxazin-3(4H)-one]
97 | O=C1COc2cc(F)c(C(=O)N3CCC(COc4cccc5scnc45)CC3)cc2N1 [Example 186, 6-((4-((1,3-benzothiazol-4-yloxy)methyl)piperidin-1-yl)carbonyl)-7-fluoro-2H-1,4-benzoxazin-3(4H)-one]
98 | Cc1nc2c(OCC3CCN(C(=O)c4cc5c(cc4F)OCC(=O)N5)CC3)cccc2s1 [Example 187, 7-fluoro-6-((4-(((2-methyl-1,3-benzothiazol-4-yl)oxy)methyl)piperidin-1-yl)carbonyl)-2H-1,4-benzoxazin-3(4H)-one]

inhibition at 10 µM [%] | SMILES
97 | O=C1COc2cc(F)c(C(=O)N3CC(COc4ccc(C(F)(F)F)cc4F)C3)cc2N1 [Example 188, 7-fluoro-6-((3-((2-fluoro-4-(trifluoromethyl)phenoxy)methyl)azetidin-1-yl)carbonyl)-2H-1,4-benzoxazin-3(4H)-one]
102 | O=C1COc2cc(F)c(C(=O)N3CC(COc4ccc(Cl)cc4-c4ccccn4)C3)cc2N1 [Example 189, 6-((3-((4-chloro-2-(pyridin-2-yl)phenoxy)methyl)azetidin-1-yl)carbonyl)-7-fluoro-2H-1,4-benzoxazin-3(4H)-one]
102 | Cc1ccc(-c2cc(Cl)ccc2OCC2CN(C(=O)c3cc4c(cc3F)OCC(=O)N4)C2)cn1 [Example 190, 6-((3-((4-chloro-2-(6-methylpyridin-3-yl)phenoxy)methyl)azetidin-1-yl)carbonyl)-7-fluoro-2H-1,4-benzoxazin-3(4H)-one]
102 | Cc1ncccc1-c1cc(Cl)ccc1OCC1CN(C(=O)c2cc3c(cc2F)OCC(=O)N3)C1 [Example 191, 6-((3-((4-chloro-2-(2-methylpyridin-3-yl)phenoxy)methyl)azetidin-1-yl)carbonyl)-7-fluoro-2H-1,4-benzoxazin-3(4H)-one]
99 | O=C1COc2cc(F)c(C(=O)N3CC(COc4ccc(Cl)cc4-c4cccnc4)C3)cc2N1 [Example 192, 6-((3-((4-chloro-2-(pyridin-3-yl)phenoxy)methyl)azetidin-1-yl)carbonyl)-7-fluoro-2H-1,4-benzoxazin-3(4H)-one]
102 | Cc1cc(-c2cc(Cl)ccc2OCC2CN(C(=O)c3cc4c(cc3F)OCC(=O)N4)C2)ccn1 [Example 193, 6-((3-((4-chloro-2-(2-methylpyridin-4-yl)phenoxy)methyl)azetidin-1-yl)carbonyl)-7-fluoro-2H-1,4-benzoxazin-3(4H)-one]
103 | O=C1COc2cc(F)c(C(=O)N3CC(COc4ccc(Br)cc4F)C3)cc2N1 [Example 194, 6-((3-((4-bromo-2-fluorophenoxy)methyl)azetidin-1-yl)carbonyl)-7-fluoro-2H-1,4-benzoxazin-3(4H)-one]
101 | O=C1COc2cc(F)c(C(=O)N3CC(COc4ccc(Cl)cc4-c4ccc(F)cn4)C3)cc2N1 [Example 195, 6-((3-((4-chloro-2-(5-fluoropyridin-2-yl)phenoxy)methyl)azetidin-1-yl)carbonyl)-7-fluoro-2H-1,4-benzoxazin-3(4H)-one]
94 | O=C1COc2cc(F)c(C(=O)N3CC(COc4ccc(Cl)cc4-c4ccc(Cl)cn4)C3)cc2N1 [Example 196, 6-((3-((4-chloro-2-(5-chloropyridin-2-yl)phenoxy)methyl)azetidin-1-yl)carbonyl)-7-fluoro-2H-1,4-benzoxazin-3(4H)-one]
104 | Cc1cccc(-c2cc(Cl)ccc2OCC2CN(C(=O)c3cc4c(cc3F)OCC(=O)N4)C2)n1 [Example 197, 6-((3-((4-chloro-2-(6-methylpyridin-2-yl)phenoxy)methyl)azetidin-1-yl)carbonyl)-7-fluoro-2H-1,4-benzoxazin-3(4H)-one]
100 | O=C1COc2cc(F)c(C(=O)N3CC(COc4ccc(Cl)cc4-c4cccnc4Cl)C3)cc2N1 [Example 198, 6-((3-((4-chloro-2-(2-chloropyridin-3-yl)phenoxy)methyl)azetidin-1-yl)carbonyl)-7-fluoro-2H-1,4-benzoxazin-3(4H)-one]
103 | CCc1ncccc1-c1cc(Cl)ccc1OCC1CN(C(=O)c2cc3c(cc2F)OCC(=O)N3)C1 [Example 199, 6-((3-((4-chloro-2-(2-ethylpyridin-3-yl)phenoxy)methyl)azetidin-1-yl)carbonyl)-7-fluoro-2H-1,4-benzoxazin-3(4H)-one]
102 | O=C1COc2cc(F)c(C(=O)N3CC(COc4ccc(Cl)cc4-c4cncc(F)c4)C3)cc2N1 [Example 200, 6-((3-((4-chloro-2-(5-fluoropyridin-3-yl)phenoxy)methyl)azetidin-1-yl)carbonyl)-7-fluoro-2H-1,4-benzoxazin-3(4H)-one]
101 | O=C1COc2cc(F)c(C(=O)N3CC(COc4ccc(Cl)cc4-c4cncc(Cl)c4)C3)cc2N1 [Example 201, 6-((3-((4-chloro-2-(5-chloropyridin-3-yl)phenoxy)methyl)azetidin-1-yl)carbonyl)-7-fluoro-2H-1,4-benzoxazin-3(4H)-one]
100 | Cc1cncc(-c2cc(Cl)ccc2OCC2CN(C(=O)c3cc4c(cc3F)OCC(=O)N4)C2)c1 [Example 202, 6-((3-((4-chloro-2-(5-methylpyridin-3-yl)phenoxy)methyl)azetidin-1-yl)carbonyl)-7-fluoro-2H-1,4-benzoxazin-3(4H)-one]
